Data published in patent US9232796B2, “Herbicidal compositions comprising 4-amino-3-chloro-5-fluoro-6-(4-chloro-2-fluoro-3-methoxyphenyl) pyridine-2-carboxylic acid or a derivative thereof and acetyl-CoA carboxylase (ACCase) inhibitors” (DOW AGROSCIENCES LLC, priority 2012, dated 2016).
Values joined by “and” are separate entries in the source; they are usually repeats but may differ in a detail not shown here. Equal entries are not always repeated.

Legend:
Test in all cases: Example V (second) postemergence foliar-applied ternary mixtures, greenhouse, direct seeded rice weeds
[1] = tested on: ECHCG; type: in vivo, Echinochloa crus-galli (L.) Beauv.
How it was run: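 Compound A (SC, acid equivalent), an ACCase inhibitor and a third herbicide were sprayed alone and as ternary mixtures postemergence at 187 L/ha with 1.25% v/v crop oil concentrate on greenhouse plants at the 1st–4th true leaf stage (29/26 °C day/night, ~14 h photoperiod). Injury was scored visually at ~3 weeks (0–100%) against untreated plants, and Colby's equation gave the expected mixture effects.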

[2] = tested on: SCPJU; type: in vivo, Schoenoplectus juncoides (Roxb.) Palla
Description: Seeds or nutlets of the desired test plant species were planted in a soil matrix prepared by mixing a sandy loam or loam soil (e.g., 32 percent silt, 23 percent clay, and 45 percent sand, with a pH of about 6.5 and an organic matter content of about 1.9 percent) and calcareous grit in an 80 to 20 ratio. The soil matrix was contained in plastic pots with a volume of 1 quart and a surface area of 83.6 square centimeters (cm^2). When required to ensure good germination and healthy plants, a fungicide treatment and/or other chemical or physical treatment was applied. The plants were grown for 8-22 days in a greenhouse with an approximate 14 hr. photoperiod which was maintained at about 29° C. during the day and 26° C. during the night. Nutrients (Peters Excel® 15-5-15 5-Ca 2-Mg and iron chelate) were applied in the irrigation solution as needed and water was added on a regular basis. Supplemental lighting was provided with overhead metal halide 1000-Watt lamps as necessary. The plants were employed for testing when they reached the first through fourth true leaf stage.
Treatments consisted of the benzyl ester of 4-amino-3-chloro-5-fluoro-6-(4-chloro-2-fluoro-3-methoxy-phenyl)pyridine-2-carboxylic acid (Compound A), formulated as an SC (suspension concentrate), an ACCase inhibitor, and a third herbicidal component, each applied alone and in ternary combination. Forms of compound A were applied on an acid equivalent basis.
The ACCase inhibitor component was applied on an active ingredient basis and included cyhalofop-R-butyl formulated as Clincher® SF, fenoxaprop-p-ethyl formulated as RiceStar® HT, and profoxydim formulated as Aura® 20EC. Other herbicidal components were applied on an active ingredient or acid equivalent basis depending on the compound and included penoxsulam formulated as Grasp® SC, bentazon sodium formulated as Basagran®, triclopyr […] (TEA) salt formulated as Grandstand® R, bispyribac sodium formulated as Regiment® 80WP, imazamox ammonium formulated as Beyond®, benzobicyclon, quinclorac formulated as Facet® 75DF, glyphosate dimethylammonium (DMA) salt formulated as Durango® DMA, glufosinate ammonium formulated as Ignite® 280, fentrazamide formulated as an emulsifiable concentrate (EC), propyrisulfuron formulated as Zeta One®, and indanofan (technical grade material).
Treatment requirements were calculated based upon the rates being tested, the concentration of active ingredient or acid equivalent in the formulation, and a 12 mL application volume at a rate of 187 L/ha.
For treatments comprised of formulated compounds, measured amounts of compounds were placed individually in 25 mL glass vials and diluted in a volume of 1.25% (v/v) Agri-Dex® crop oil concentrate to obtain 12× stock solutions. […]

[3] = tested on: IPOHE; type: in vivo, Ipomoea hederacea Jacq.
Description: All stock solutions and applications solutions were visually inspected for compound compatibility prior to application. Spray solutions were applied to the plant material with an overhead Mandel track sprayer equipped with a 8002E nozzles calibrated to deliver 187 L/ha over an application area of 0.503 m^2 at a spray height of 18 inches (46 cm) above average plant canopy height. Control plants were sprayed in the same manner with the solvent blank.
(§1) The treated plants and control plants were placed in a greenhouse as described above and watered by sub-irrigation to prevent wash-off of the test compounds. After approximately 3 weeks, the condition of the test plants as compared with that of the untreated plants was determined visually and scored on a scale of 0 to 100 percent where 0 corresponds to no injury or growth inhibition and 100 corresponds to complete kill.
(§2) Colby's equation was used to determine the herbicidal effects expected from the mixtures (Colby, S. R. 1967. Calculation of the synergistic and antagonistic response of herbicide combinations. Weeds 15:20-22.).
(§3) The following equation was used to calculate the expected activity of mixtures containing three active ingredients, A, B, and C: Expected=A+B+C−((A×B+A×C+B×C)/100)+(A×B×C/10000)

[4] = tested on: ECHCO; type: in vivo, Echinochloa colona (L.) Link
Method: as §1, §2, §3

[5] = tested on: CYPES; type: in vivo, Cyperus esculentus L.
Method: as §1, §2, §3

## COc1c(Cl)ccc(-c2nc(C(=O)OCc3ccccc3)c(Cl)c(N)c2F)c1F [Compound A Benzyl Ester, benzyl ester of 4-amino-3-chloro-5-fluoro-6-(4-chloro-2-fluoro-3-methoxy-phenyl)pyridine-2-carboxylic acid]
[1]; 2.19 gae/ha
  Visual Weed Control (%) - 21 DAA ECHCG Obs: 5%
[1]; 4.38 gae/ha
  Visual Weed Control (%) - 21 DAA ECHCG Obs: 27%
[1]; 8 gae/ha
  Visual Weed Control (%) - 21 DAA ECHCG Obs: 38% and 45%
  Visual Weed Control (%) - 22 DAA ECHCG Obs: 40%
[1]; 16 gae/ha
  Visual Weed Control (%) - 22 DAA ECHCG Obs: 58%
[2]; 2.19 gae/ha
  Visual Weed Control (%) - 21 DAA SCPJU Obs: 65%
[2]; 4.38 gae/ha
  Visual Weed Control (%) - 21 DAA SCPJU Obs: 96%
[3]; 8 gae/ha
  Visual Weed Control (%) - 21 DAA IPOHE Obs: 15%
[3]; 16 gae/ha
  Visual Weed Control (%) - 21 DAA IPOHE Obs: 33%
[4]; 2.19 gae/ha
  Visual Weed Control (%) - 21 DAA ECHCO Obs: 10%
[4]; 4.38 gae/ha
  Visual Weed Control (%) - 21 DAA ECHCO Obs: 25%
[4]; 8 gae/ha
  Visual Weed Control (%) - 21 DAA ECHCO Obs: 45%
[5]; 8 ae/ha
  Visual Weed Control (%) - 21 DAA CYPES Obs: 70%
[5]; 8 gae/ha
  Visual Weed Control (%) - 21 DAA CYPES Obs: 70%

## CCCCOC(=O)[C@@H](C)Oc1ccc(Oc2ccc(C#N)cc2F)cc1 [Cyhalofop-butyl, butyl(2R)-2-[4-(4-cyano-2-fluorophenoxy)phenoxy]propanoate, reference compound]
[1]; 17.5 gai/ha
  Visual Weed Control (%) - 21 DAA ECHCG Obs: 33%
  Visual Weed Control (%) - 22 DAA ECHCG Obs: 0%
[1]; 35 gai/ha
  Visual Weed Control (%) - 21 DAA ECHCG Obs: 20%
  Visual Weed Control (%) - 22 DAA ECHCG Obs: 12%
[2]; 35 gai/ha
  Visual Weed Control (%) - 21 DAA SCPJU Obs: 0%
[3]; Cyhalofop-butyl 35 gai/ha
  Visual Weed Control (%) - 21 DAA IPOHE Obs: 0%
[4]; 35 gai/ha
  Visual Weed Control (%) - 21 DAA ECHCO Obs: 37% and 40%
[5]; 35 gai/ha
  Visual Weed Control (%) - 21 DAA CYPES Obs: 0%
